In US4404211A, “Analgesic mixture of nalbuphine and flurbiprofen” (E. I. Du Pont de Nemours and Company, priority 1982, dated 1983):

Test system: phenyl-p-benzoquinone induced writhing in mice
Assay: mouse antiphenylquinone (phenyl-p-benzoquinone induced) writhing test, oral, 20 min
Procedure: Male CF1 mice obtained from Charles River Breeding Laboratories, fasted for 16-22 hours and weighing 18-22 g at the time of testing are used throughout. All mice are dosed sequentially by the oral route with solutions of flurbiprofen and/or of nalbuphine hydrochloride. A dosing volume of 10 ml/kg is used for each sequential solution or suspension. […] All doses are coded and the test is performed under a code not known to the observer.
A stock solution of flurbiprofen is prepared by dissolving dry flurbiprofen powder with an equimolar amount of one molar sodium hydroxide and sufficient water to produce the required solution concentration. The acidity is adjusted with dilute hydrochloric acid to pH 9.0. All dosing solutions are prepared by dilution of the stock solution with distilled water; the vehicle control is distilled water.
Stock solutions of nalbuphine HCl are prepared by dissolving dry nalbuphine hydrochloride powder with distilled water. All dosing solutions are prepared by dilution of the stock solution with distilled water; the vehicle control is distilled water.
As indicated above, the standard procedure based upon the prevention of phenyl-p-benzoquinone induced writhing in mice is utilized to detect and quantify the analgetic activity of compositions containing nalbuphine and flurbiprofen.
Mice, intubated with various doses of nalbuphine hydrochloride, flurbiprofen, combined doses of nalbuphine hydrochloride and flurbiprofen,or vehicle, are injected intraperitoneally with a challenge dose of phenyl-p-benzoquinone 5 minutes prior to the designated observation period. […] For scoring purposes a "writhe" is indicated by whole body stretching or contraction of the abdomen; mice are observed 10 minutes for the presence or absence of writhing beginning 5 minutes after receiving the phenyl-p-benzoquinone dose. Each mouse is used only once, then discarded. […] This dosage as described herein is referred to as the ED50.
In order to study the interaction between nalbuphine and flurbiprofen, 5 precise dosage ratios of nalbuphine hydrochloride and flurbiprofen are selected. Four or five coded doses of each selected combination are studied for analgesic effectivenss at 20 minutes using an experimental design which permits coding and complete randomization of the separate dosage forms tested. Althogether 35 separate dosage forms are used and each form is represented in each experimental session. The experiments are continued by running experimental sessions with an equal number of mice per group being tested until the total number, N, of mice tested per group is 20. Later, an additional 20 mice/dose are tested and the results are pooled with the original data to yield N=20-40 mice/dose.

SMILES	% MICE BLOCKED (nalbuphine HCl 2.93 + flurbiprofen 0 mg/kg) [%]	% MICE BLOCKED (nalbuphine HCl 5.85 + flurbiprofen 0 mg/kg) [%]	% MICE BLOCKED (nalbuphine HCl 11.7 + flurbiprofen 0 mg/kg) [%]	% MICE BLOCKED (nalbuphine HCl 23.4 + flurbiprofen 0 mg/kg) [%]	% MICE BLOCKED (nalbuphine HCl 46.8 + flurbiprofen 0 mg/kg) [%]	ED50 at 20 Min. (95% Confidence Limits), Nalbuphine HCl (nalbuphine HCl dose (alone or as component of the combination), N = 20-40 mice/dose) [mg/kg]	ED50 at 20 Min. (95% Confidence Limits), Flurbiprofen (flurbiprofen dose (alone or as component of the combination), N = 20-40 mice/dose) [mg/kg]	% MICE BLOCKED (nalbuphine HCl 0 + flurbiprofen 0.4 mg/kg) [%]	% MICE BLOCKED (nalbuphine HCl 0 + flurbiprofen 0.8 mg/kg) [%]	% MICE BLOCKED (nalbuphine HCl 0 + flurbiprofen 1.6 mg/kg) [%]	% MICE BLOCKED (nalbuphine HCl 0 + flurbiprofen 3.2 mg/kg) [%]
Oc1ccc2c3c1O[C@H]1[C@@H](O)CC[C@@]4(O)[C@@H](C2)N(CC2CCC2)CC[C@]314 [Nalbuphine Only (1:0), (-)-17-(cyclobutylmethyl)-4,5α-epoxymorphinan-3,6α,14-triol]	12.5	22.5	45.0	67.5	80.0	16.5					
CC(C(=O)O)c1ccc(-c2ccccc2)c(F)c1 (stereo not drawn) [Flurbiprofen Only (0:1), 2-fluoro-α-methyl[1,1'-biphenyl]-4-acetic acid]							1.56	5.0	32.5	45.0	87.5
